Data from PubChem BioAssay AID330 (DTP/NCI, 2004).
“And” between values parts separate entries of the source, which are not always exact repeats. Equal entries are not always repeated. Toxic doses and inconclusive results are not listed.

System: P388 leukemia ip, CD2F1 mice, survival T/C
Test: NCI In Vivo Anticancer Drug Screen. Data for tumor model P388 Leukemia (intraperitoneal) in CD2F1 (CDF1) mice
Conditions: endpoint: median survival time, higher = longer survival
Outline: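 Mice carrying the transplanted tumor received test compound or vehicle. Survival was recorded in each group, and the value is the treated-group measurement divided by that of the vehicle-treated control group.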

[1] = dose: 100.0 mg/kg/injection, schedule: Q01DX009 (ip), vehicle: saline with Tween-80
[2] = dose: 200.0 mg/kg/injection, schedule: Q01DX009 (ip), vehicle: saline with Tween-80
[3] = dose: 50.0 mg/kg/injection, schedule: Q01DX009 (ip), vehicle: saline with Tween-80

## CC(C)=CCN=c1ncn(CCC(N)C(=O)O)c2nc[nH]c12 (configuration not stated)
dose: 3.0 mg/kg/injection, schedule: Q01DX009 (ip), vehicle: Klucel (hydroxypropylcellulose) (HPC)
  T/C: 109 % of control
dose: 6.0 mg/kg/injection, schedule: Q01DX009 (ip), vehicle: Klucel (hydroxypropylcellulose) (HPC)
  T/C: 105 % of control
dose: 12.0 mg/kg/injection, schedule: Q01DX009 (ip), vehicle: Klucel (hydroxypropylcellulose) (HPC)
  T/C: 115 % of control
dose: 24.0 mg/kg/injection, schedule: Q01DX009 (ip), vehicle: Klucel (hydroxypropylcellulose) (HPC)
  T/C: 118 % of control
dose: 48.0 mg/kg/injection, schedule: Q01DX009 (ip), vehicle: Klucel (hydroxypropylcellulose) (HPC)
  T/C: 108 % of control

## CCCCN(S(=O)(=O)c1ccc(C)cc1)S(=O)(=O)c1ccc(C)cc1
[1]
  T/C: 120 % of control
[2]
  T/C: 106 % of control
dose: 400.0 mg/kg/injection, schedule: Q01DX009 (ip), vehicle: saline with Tween-80
  T/C: 87 % of control

## Clc1ccc(OCCBr)cc1
dose: 50.0 mg/kg/injection, schedule: Q04DX003 (ip), vehicle: saline with Tween-80
  T/C: 105 % of control
dose: 100.0 mg/kg/injection, schedule: Q04DX003 (ip), vehicle: saline with Tween-80
  T/C: 101 % of control
dose: 200.0 mg/kg/injection, schedule: Q04DX003 (ip), vehicle: saline with Tween-80
  T/C: 105 % of control
dose: 400.0 mg/kg/injection, schedule: Q04DX003 (ip), vehicle: saline with Tween-80
  T/C: 99 % of control

## CCCCCCCC/C=C\CCCCCCCC(=O)NCCCN(C)C
dose: 12.5 mg/kg/injection, schedule: Q01DX009 (ip), vehicle: saline
  T/C: 98 % of control
dose: 25.0 mg/kg/injection, schedule: Q01DX009 (ip), vehicle: saline
  T/C: 91 % of control
[3]
  T/C: 112 % of control

## O=C(NCO)NS(=O)(=O)c1ccc(N2C(=O)c3ccccc3C2=O)cc1
dose: 50.0 mg/kg/injection, schedule: Q01DX009 (ip), vehicle: Klucel (hydroxypropylcellulose) (HPC)
  T/C: 103 % of control
dose: 100.0 mg/kg/injection, schedule: Q01DX009 (ip), vehicle: Klucel (hydroxypropylcellulose) (HPC)
  T/C: 107 % of control
dose: 200.0 mg/kg/injection, schedule: Q01DX009 (ip), vehicle: Klucel (hydroxypropylcellulose) (HPC)
  T/C: 112 % of control

## CCCCNCCC1(CCC(C)C)C(=O)NC(=O)NC1=O
dose: 50.0 mg/kg/injection, schedule: Q01DX005 (ip), vehicle: Klucel (hydroxypropylcellulose) (HPC)
  T/C: 96 % of control
dose: 100.0 mg/kg/injection, schedule: Q01DX005 (ip), vehicle: Klucel (hydroxypropylcellulose) (HPC)
  T/C: 105 % of control
dose: 200.0 mg/kg/injection, schedule: Q01DX005 (ip), vehicle: Klucel (hydroxypropylcellulose) (HPC)
  T/C: 101 % of control

## COC(=O)c1nc(=S)[nH]c(C(=O)OC)c1C(=O)c1ccccc1
dose: 60.0 mg/kg/injection, schedule: Q01DX005 (ip), vehicle: Klucel + Tween-80
  T/C: 101 % of control
dose: 120.0 mg/kg/injection, schedule: Q01DX005 (ip), vehicle: Klucel + Tween-80
  T/C: 93 % of control
dose: 240.0 mg/kg/injection, schedule: Q01DX005 (ip), vehicle: Klucel + Tween-80
  T/C: 92 % of control

## CN(CC(O)C(O)CN(C)N=O)N=O (configuration not stated)
dose: 100.0 mg/kg/injection, schedule: Q01DX001 (ip), vehicle: Klucel (hydroxypropylcellulose) (HPC)
  T/C: 88 % of control
dose: 200.0 mg/kg/injection, schedule: Q01DX001 (ip), vehicle: Klucel (hydroxypropylcellulose) (HPC)
  T/C: 94 % of control
dose: 400.0 mg/kg/injection, schedule: Q01DX001 (ip), vehicle: Klucel (hydroxypropylcellulose) (HPC)
  T/C: 100 % of control

## COc1cc2c(c(OC)c1OC)-c1ccc(=O)c(OC)cc1C=CC2
dose: 2.5 mg/kg/injection, schedule: Q01DX009 (ip), vehicle: Klucel (hydroxypropylcellulose) (HPC)
  T/C: 100 % of control
dose: 5.0 mg/kg/injection, schedule: Q01DX009 (ip), vehicle: Klucel (hydroxypropylcellulose) (HPC)
  T/C: 106 % of control
dose: 10.0 mg/kg/injection, schedule: Q01DX009 (ip), vehicle: Klucel (hydroxypropylcellulose) (HPC)
  T/C: 104 % of control and 108 % of control
dose: 20.0 mg/kg/injection, schedule: Q01DX009 (ip), vehicle: Klucel (hydroxypropylcellulose) (HPC)
  T/C: 103 % of control and 109 % of control
dose: 40.0 mg/kg/injection, schedule: Q01DX009 (ip), vehicle: Klucel (hydroxypropylcellulose) (HPC)
  T/C: 106 % of control and 123 % of control
dose: 80.0 mg/kg/injection, schedule: Q01DX009 (ip), vehicle: Klucel (hydroxypropylcellulose) (HPC)
  T/C: 115 % of control

## O=C(/C=C/c1ccc(Cl)c(Cl)c1)/C=C/c1ccc(Cl)c(Cl)c1
[3]
  T/C: 87 % of control
[1]
  T/C: 100 % of control
[2]
  T/C: 87 % of control

## CCC/C(=N\O)C(O)(CCC)CCC
[3]
  T/C: 89 % of control
[1]
  T/C: 89 % of control
[2]
  T/C: 89 % of control

## O=NNc1cnc(Br)cn1
dose: 3.13 mg/kg/injection, schedule: Q01DX009 (ip), vehicle: water
  T/C: 97 % of control
dose: 6.25 mg/kg/injection, schedule: Q01DX009 (ip), vehicle: water
  T/C: 101 % of control
dose: 12.5 mg/kg/injection, schedule: Q01DX009 (ip), vehicle: water
  T/C: 105 % of control and 108 % of control
dose: 25.0 mg/kg/injection, schedule: Q01DX009 (ip), vehicle: water
  T/C: 108 % of control and 118 % of control
dose: 100.0 mg/kg/injection, schedule: Q01DX009 (ip), vehicle: water
  T/C: 167 % of control

## CCOc1ccc2ccc3ccc(OCC)nc3c2n1
dose: 60.0 mg/kg/injection, schedule: Q01DX005 (ip), vehicle: saline with Tween-80
  T/C: 89 % of control
dose: 120.0 mg/kg/injection, schedule: Q01DX005 (ip), vehicle: saline with Tween-80
  T/C: 98 % of control
dose: 240.0 mg/kg/injection, schedule: Q01DX005 (ip), vehicle: saline with Tween-80
  T/C: 95 % of control
